These results are taken from ChEMBL document CHEMBL4665909, “Carboxamides as Modulators of Sodium Channels” (ACS Med Chem Lett, 2020).

The structures appear in SMILES notation.

Sequence of Sodium channel protein type 10 subunit alpha (Q9Y5Y9 whole entry): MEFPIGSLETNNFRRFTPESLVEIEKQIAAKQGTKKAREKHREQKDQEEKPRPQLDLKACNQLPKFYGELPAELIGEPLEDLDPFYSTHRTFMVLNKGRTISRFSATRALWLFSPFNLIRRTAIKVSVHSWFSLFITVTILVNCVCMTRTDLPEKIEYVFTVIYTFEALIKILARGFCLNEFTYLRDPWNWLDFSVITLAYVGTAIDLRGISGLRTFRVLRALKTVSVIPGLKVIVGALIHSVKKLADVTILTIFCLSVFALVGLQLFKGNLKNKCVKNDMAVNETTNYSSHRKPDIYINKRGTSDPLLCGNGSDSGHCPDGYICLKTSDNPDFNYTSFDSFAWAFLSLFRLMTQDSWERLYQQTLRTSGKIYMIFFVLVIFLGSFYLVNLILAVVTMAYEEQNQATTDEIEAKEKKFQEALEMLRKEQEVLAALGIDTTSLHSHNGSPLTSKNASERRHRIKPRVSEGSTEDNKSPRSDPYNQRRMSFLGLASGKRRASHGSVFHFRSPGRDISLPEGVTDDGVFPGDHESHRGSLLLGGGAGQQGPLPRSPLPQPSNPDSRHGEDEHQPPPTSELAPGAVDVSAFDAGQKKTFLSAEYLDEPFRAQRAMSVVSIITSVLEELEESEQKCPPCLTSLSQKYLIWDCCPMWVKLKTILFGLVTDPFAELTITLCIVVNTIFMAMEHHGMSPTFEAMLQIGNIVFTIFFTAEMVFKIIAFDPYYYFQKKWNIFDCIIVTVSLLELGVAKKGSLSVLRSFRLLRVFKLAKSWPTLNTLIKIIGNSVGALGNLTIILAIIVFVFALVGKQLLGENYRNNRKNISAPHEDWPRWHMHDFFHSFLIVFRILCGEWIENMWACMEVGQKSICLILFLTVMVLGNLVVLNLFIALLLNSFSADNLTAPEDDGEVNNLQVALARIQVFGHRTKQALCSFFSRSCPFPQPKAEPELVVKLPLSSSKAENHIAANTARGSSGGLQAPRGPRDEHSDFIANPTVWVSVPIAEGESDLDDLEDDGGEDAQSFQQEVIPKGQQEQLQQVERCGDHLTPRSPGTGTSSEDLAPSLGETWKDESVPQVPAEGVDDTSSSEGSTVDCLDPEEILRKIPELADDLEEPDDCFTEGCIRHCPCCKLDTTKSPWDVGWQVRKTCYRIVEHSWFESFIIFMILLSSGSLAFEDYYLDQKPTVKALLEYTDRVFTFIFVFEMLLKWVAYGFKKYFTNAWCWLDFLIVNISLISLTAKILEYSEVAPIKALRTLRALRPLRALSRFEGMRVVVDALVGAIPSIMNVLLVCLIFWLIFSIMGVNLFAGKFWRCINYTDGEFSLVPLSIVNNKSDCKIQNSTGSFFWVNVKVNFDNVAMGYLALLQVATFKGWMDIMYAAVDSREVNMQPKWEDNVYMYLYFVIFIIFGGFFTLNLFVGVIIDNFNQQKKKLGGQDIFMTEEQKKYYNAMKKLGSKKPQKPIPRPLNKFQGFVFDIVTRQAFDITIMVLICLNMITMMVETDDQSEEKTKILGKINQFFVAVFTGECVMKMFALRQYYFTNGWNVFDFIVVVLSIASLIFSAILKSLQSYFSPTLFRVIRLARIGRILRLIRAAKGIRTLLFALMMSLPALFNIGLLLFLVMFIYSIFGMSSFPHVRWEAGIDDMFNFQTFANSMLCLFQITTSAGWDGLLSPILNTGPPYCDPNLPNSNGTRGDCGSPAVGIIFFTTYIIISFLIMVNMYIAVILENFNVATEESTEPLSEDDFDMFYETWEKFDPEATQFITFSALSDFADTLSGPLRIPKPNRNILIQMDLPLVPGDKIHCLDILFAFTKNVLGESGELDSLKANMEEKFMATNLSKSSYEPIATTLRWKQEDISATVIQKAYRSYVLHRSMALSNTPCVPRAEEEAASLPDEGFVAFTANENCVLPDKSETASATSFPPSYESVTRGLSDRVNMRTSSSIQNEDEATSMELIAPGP

This assay addresses Sodium channel protein type 10 subunit alpha (Homo sapiens, UniProt Q9Y5Y9). Nature of the assay: Inhibition of human Nav1.8 expressed in HEK cells applied electrical stimulus 10 Hz for 10 seconds measuring relaxation to the resting state followed by post stimulation by E-VIPR Assay. The format is cell-based.
As for `COc1cc(OC(F)(F)F)ccc1Oc1ccc(C(F)(F)F)c(Br)c1C(=O)Nc1ccnc(C(N)=O)c1`, the 50% inhibitory concentration (IC50) was 2 nM. Next, `COc1cc(Oc2ccc(OC(F)(F)F)c(F)c2OC)c(C(=O)Nc2ccnc(C(N)=O)c2)c(F)c1Cl`: 1.7 nM. Next, `COc1c(Oc2cc(C(F)(F)F)c(OC)c(F)c2C(=O)Nc2ccnc(C(N)=O)c2)ccc(OC(F)(F)F)c1F`: 1.6 nM. The compound `COc1c(Oc2ccc(Cl)c(F)c2C(=O)Nc2ccnc(C(N)=O)c2)ccc(OC(F)(F)F)c1F` had a half-inhibitory concentration (IC50) of 2.3 nM. Next, `COc1cc(Oc2ccc(OC(F)(F)F)c(F)c2OC)c(C(=O)Nc2ccnc(C(N)=O)c2)c(F)c1C(F)(F)F`: 0.4 nM; `COc1c(Oc2cc(C(F)(F)F)c(C)c(F)c2C(=O)Nc2ccnc(C(N)=O)c2)ccc(OC(F)(F)F)c1F`: 0.8 nM; `COc1c(Oc2cc(Cl)c(C)c(F)c2C(=O)Nc2ccnc(C(N)=O)c2)ccc(OC(F)(F)F)c1F`: 1.4 nM. Next, `COc1c(Cl)cc(Oc2ccc(OC(F)(F)F)c(F)c2OC)c(C(=O)Nc2ccnc(C(N)=O)c2)c1F`: 1.3 nM; `COc1cc(OC(F)(F)F)ccc1Oc1ccc(C(F)(F)F)c(C)c1C(=O)Nc1ccnc(C(N)=O)c1`: 4 nM.

The compound `COc1c(Oc2ccc(C(F)(F)F)c(C)c2C(=O)Nc2ccnc(C(N)=O)c2)ccc(OC(F)(F)F)c1F` displayed an IC50 of 3 nM. The figure for `COc1cc(OC(F)(F)F)ccc1Oc1cc(OC)c(C(F)(F)F)c(F)c1C(=O)Nc1ccnc(C(N)=O)c1` is 1.8 nM; for `COc1cc(OC(F)(F)F)ccc1Oc1ccc(C(F)(F)F)c(Cl)c1C(=O)Nc1ccnc(C(N)=O)c1` it is 2 nM.
